Values after ≈ are worked out from the molar mass of the structure shown. Read-outs that look alike come from different tables or passages of the source.
Columns and labels:
Solubility assay = format: physicochemical; settings: PBS buffer, aqueous buffer, kinetic from dmso stock, PBS pH 7.4, room temperature
Method: Next, 5 μL of this reference stock plate was mixed with 70 μL of 1-propanol and 75 μL of PBS (pH 7.4) to make the reference plate, and the UV spectrum (250–500 nm) of the reference plate was read. Then, 6 μL of 10 mM test compound stock was added to 600 μL of PBS, pH 7.4, in a 96-well storage plate and mixed. The storage plate was sealed and incubated at room temperature for 18 h. The suspension was then filtered through a 96-well filter plate (pION Inc.). Next, 75 μL of filtrate was mixed with 75 μL of 1-propanol to make the sample plate, and the UV spectrum of the sample plate was read. Calculations were done using μSOL Evolution software based on the area under the curve (AUC) of the UV spectrum of the sample plate and the reference plate. All compounds were tested in triplicate.

[1] = tested on: BJ cell line (human foreskin fibroblasts); experiment: Mammalian cell drug susceptibility assay (Cell Titer Glo, 72 h); format: cell-based
Method: The BJ cell line (human foreskin fibroblasts), which express GLUT1 [26], was purchased from the ATTC and cultured according to recommendations. 1000 exponentially growing cells were plated per well (25 μL) in white polystyrene flat bottom sterile 384-well tissue culture treated plates (Corning), and incubated overnight at 37°C in a humidified 5% CO2 incubator. DMSO inhibitor stock solutions were pin-transferred (V&P Scientific) the following day. Plates were placed back in the incubator for 72 h incubation and equilibrated at room temperature for 20 min before addition of 25 μL Cell Titer Glo (Promega) to each well. Plates were shaken on an orbital shaker for 2 min at 500 rpm. Luminescence was read after 15 min on an Envision plate reader (Perkin Elmer). EC50 values were calculated with a custom program (RISE, Robust Investigation of Screening Experiments) using a four-parameter logistic equation.

P. falciparum strain 3D7 = experiment: Proliferation of intraerythrocytic P. falciparum 3D7 (SYBR Green, 72 h); format: cell-based, Plasmodium falciparum; settings: chloroquine sensitive strain 3D7, 72 h, read-out: Pf 3D7 EC50
Method: (§1) Two P. falciparum strains were used in this study and were provided by the MR4 Unit of the American Type Culture Collection (ATCC, Manassas, VA). Those two strains were the chloroquine sensitive strain 3D7 and the K1 strain that is resistant to chloroquine, pyrimethamine, and sulfadoxine.
(§2) Asynchronous parasites were maintained in culture based on the method of Trager. Parasites were grown in presence of fresh group O-positive erythrocytes (Key Biologics, LLC) in Petri dishes at a hematocrit of 4–6% in RPMI based media (RPMI 1640 supplemented with 0.5% AlbuMAX II, 25 mM HEPES, 25 mM NaHCO3 (pH 7.3), 100 μg/mL hypoxanthine, and 5 μg/mL gentamycin). Cultures were incubated at 37°C in a gas mixture of 90% N2, 5% O2, 5% CO2. For EC50 determinations, 20 μL of RPMI 1640 with 5 μg/mL gentamycin were dispensed per well in an assay plate (Corning 384-well microtiter plate, clear bottom, tissue culture treated, catalog no. 8807BC). 40 nL of compound, previously serially diluted in a separate 384-well white polypropylene plate (Corning, catalog no. 8748BC), was dispensed to the assay plate by hydrodynamic pin transfer (FP1S50H, V&P Scientific Pin Head) and then 20 μL of a synchronized culture suspension (1% rings, 4% hematocrit) was added to each well, thus making a final hematocrit and parasitemia of 2% and 1%, respectively. Assay plates were incubated for 72 h, and the parasitemia was determined by a method previously described: Briefly, 10 μL of the assay solution in PBS (10X SYBR Green I, 0.5% v/v triton X-100, 0.5 mg/mL saponin) was added to each well. Assay plates were shaken for 1 min, incubated in the dark for 90 min, and read with an Envision (Perkin Elmer) spectrophotometer at Ex/Em of 485 nm/535 nm. EC50s were calculated with a custom program (RISE, Robust Investigation of Screening Experiments) using a four-parameter logistic equation.

[2] = Parallel artificial membrane permeability assay (PAMPA); settings: for Permeation: pH 7.4; for Retention: retention in artificial membrane
Method: A parallel artificial membrane permeability assay (PAMPA) was conducted on a Biomek FX lab automation workstation (Beckman Coulter, Inc.) with PAMPA evolution 96 command software (pION Inc.) as follows: 3 μL of 10 mM test compound stock was mixed with 600 μL of PBS (pH 7.4) to make diluted test compound. Then 150 μL of diluted test compound was transferred to a UV plate (pION Inc.), and the UV spectrum was read as the reference plate. The membrane on a preloaded PAMPA sandwich (pION Inc.) was painted with 4 μL of GIT lipid (pION Inc.). The acceptor chamber was then filled with 200 μL of acceptor solution buffer (pION Inc.), and the donor chamber was filled with 180 μL of diluted test compound. The PAMPA sandwich was assembled, placed on the Gut-Box controlled environment chamber and stirred for 30 min. The aqueous boundary layer was set to 40 μm for stirring. The UV spectrum (250–500 nm) of the donor and the acceptor were read. The permeability coefficient was calculated using PAMPA Evolution 96 Command software (pION Inc.) based on the AUC of the reference plate, the donor plate, and the acceptor plate. All compounds were tested in triplicate.

P. falciparum strain K1 = experiment: Proliferation of intraerythrocytic P. falciparum K1 (SYBR Green, 72 h); format: cell-based, Plasmodium falciparum; settings: multi-drug resistant strain K1, 72 h, read-out: Pf K1 EC50
Method: as §1, §2

[3] = Plasmodium falciparum, 3D7, 72 h
[4] = Plasmodium falciparum, K1, 72 h

Which results are given for `COc1cc(Nc2ccc3cc(S(=O)(=O)N4CCCCC4C)ccc3n2)cc(OC)c1OC` (stereo not shown) [Compound 1]?
solubility at 18 h (Solubility assay): 0.5 ± 0.4 µM (≈ 0.236 µg/mL); EC50 [1]: > 23 µM; EC50 (P. falciparum strain 3D7; [3]): ~1 µM; EC50 (P. falciparum strain 3D7): 1.4 µM; Permeation [2]: 1057 ± 69 10^-6 cm/s; Retention [2]: 70 ± 2.0%; EC50 (P. falciparum strain K1; [4]): ~1 µM; EC50 (P. falciparum strain K1): 0.97 µM

For `CC1CCCCN1S(=O)(=O)c1ccc2nc(Nc3ccccc3)ccc2c1` (stereo not shown) [Compound 10], which solubility at 18 h (Solubility assay) is on record?
The solubility at 18 h was 0.4 µM (≈ 0.153 µg/mL).

What about the EC50 [1] of the same molecule?
The EC50 was over 25 µM.

What about the EC50 (P. falciparum strain 3D7; [3]) of the same molecule?
The EC50 was over 10 µM.

What about the EC50 (P. falciparum strain 3D7) of the same molecule?
The EC50 was 15 µM.

What about the Permeation [2] of the same molecule?
Its Permeation is 534 ± 25 10^-6 cm/s.

What about the Retention [2] of the same molecule?
The Retention was 80 ± 12%.

What about the EC50 (P. falciparum strain K1; [4]) of the same molecule?
The EC50 was over 10 µM.

What about the EC50 (P. falciparum strain K1) of the same molecule?
The EC50 was 12 µM.

With `CC1CCCCN1S(=O)(=O)c1ccc2nc(Nc3ccc(C#N)cc3)ccc2c1` (stereo not shown) [Compound 12] as the molecule, how does the EC50 [1] read?
Its EC50 is over 26 µM.

What about the EC50 (P. falciparum strain 3D7; [3]) of the same molecule?
The EC50 was over 10 µM.

And the EC50 (P. falciparum strain 3D7)?
The EC50 was over 16 µM.

And the Permeation [2]?
The Permeation was 570 ND 10^-6 cm/s.

What about the Retention [2] of the same molecule?
The Retention was 93 ± 3.8%.

And the EC50 (P. falciparum strain K1; [4])?
Its EC50 is over 10 µM.

And the EC50 (P. falciparum strain K1)?
Its EC50 is over 16 µM.

With `CC1CCCCN1S(=O)(=O)c1ccc2nc(Nc3cccc(C#N)c3)ccc2c1` (stereo not shown) [Compound 13] as the molecule, how does the solubility at 18 h (Solubility assay) read?
Its solubility at 18 h is 0.9 ± 1.2 µM (≈ 0.366 µg/mL).

What about the EC50 [1] of the same molecule?
Its EC50 is over 25 µM.

And the EC50 (P. falciparum strain 3D7; [3])?
The EC50 was over 10 µM.

What about the EC50 (P. falciparum strain 3D7) of the same molecule?
The EC50 was 11 µM.

What about the Permeation [2] of the same molecule?
The Permeation was 582 ± 205 10^-6 cm/s.

And the Retention [2]?
The Retention was 93 ± 0.5%.

And the EC50 (P. falciparum strain K1; [4])?
Its EC50 is over 10 µM.

What about the EC50 (P. falciparum strain K1) of the same molecule?
Its EC50 is 7.3 µM.
